Among the test systems are HL-60; SK-MEL-5; IGROV-1; HCT-116; HOP-92; SK-MEL-2; OVCAR-4; KM12; MDA-N; MDA-MB-231; HT-29; SN12C; NCI-H460; 786-0; EKVX; U-251; HOP-62; K562; M14; TK-10.
Assay in all cases: DTP human tumour cell line panel, 48 h

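Five compound concentrations were applied to cells in 96-well plates for 48 hours; endpoints were derived by simple linear interpolation of the resulting dose-response curve. At the GI50, growth is halved.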 Activity calls are given as the source filed them. Cut-off read from the data, not from the text of the source: active = GI50 up to about 1.1 µM and inactive = higher. Some results are limits rather than exact numbers.

In the case of `Cc1nc(C)c(C(=O)NNC(=O)Cc2ccccc2)cc1C(=O)NNC(=O)Cc1ccccc1`, the GI50 in the test with HL-60, in the test on SK-MEL-5, with IGROV-1, in the test on HCT-116, with HOP-92 and in the test on SK-MEL-2 was > 100 µM (inactive) in each case. The GI50 in the test on OVCAR-4, in the test on KM12, in the test on MDA-N, in the test on MDA-MB-231, in the test on HT-29 and in the test on SN12C was > 100 µM (inactive) in each case. Moreover, the GI50 in the test on NCI-H460, in the test on 786-0, with EKVX, with U-251, in the test with HOP-62 and in the test on K562 was > 100 µM (inactive) in each case. The GI50 with M14 and in the test on TK-10 was > 100 µM (inactive) throughout.
On to `CC(=O)C1(O)Cc2c(O)c3c(c(O)c2C(OC2CC(N)C(O)C(C)O2)C1)C(=O)c1ccccc1C3=O` (stereo not given), for which the GI50 in the test on HL-60 was 0.00206 µM (active); in the test with SK-MEL-5, 0.0241 µM (active); with IGROV-1, 0.0243 µM (active); with HCT-116, 0.0279 µM (active); in the test with HOP-92, 0.187 µM (active); with SK-MEL-2, 0.415 µM (active). Also, the GI50 in the test on OVCAR-4 is 0.327 µM (active); with KM12, 0.0498 µM (active); with MDA-N, 0.112 µM (active); in the test with MDA-MB-231, 0.252 µM (active); in the test with HT-29, 0.0252 µM (active); with SN12C, 0.0207 µM (active). Further, the GI50 in the test with NCI-H460 was 0.000569 µM (active); in the test on 786-0, 0.0152 µM (active); in the test with EKVX, 0.193 µM (active); with U-251, 0.0255 µM (active); with HOP-62 it was 0.0141 µM (active); in the test on K562, 0.083 µM (active). The GI50 in the test on M14 is 0.0452 µM (active); in the test on TK-10, 0.053 µM (active).
In the case of `O=C1NC(=O)C(c2c[nH]c3ccccc23)=C1c1cnc[nH]1`, the GI50 in the test with HL-60 is 26.9 µM (inactive); with SK-MEL-5, 22.5 µM (inactive); in the test with IGROV-1, > 100 µM (inactive); in the test on HCT-116 it was 41.8 µM (inactive); with HOP-92, > 100 µM (inactive); in the test with SK-MEL-2, 43.4 µM (inactive). The GI50 in the test with OVCAR-4 is > 100 µM (inactive); with KM12, 45.2 µM (inactive); in the test with MDA-N it was 74.3 µM (inactive); with MDA-MB-231 it was > 100 µM (inactive); with HT-29, 66.4 µM (inactive); in the test with SN12C, > 100 µM (inactive). Besides, the GI50 is 55.3 µM (inactive) in the test with NCI-H460; > 100 µM (inactive) in the test on 786-0; > 100 µM (inactive) in the test with EKVX; > 100 µM (inactive) in the test with U-251; > 100 µM (inactive) with HOP-62; 5.61 µM (inactive) in the test on K562. The GI50 in the test with M14 is > 100 µM (inactive); with TK-10, 89.5 µM (inactive).
Turning to `C=CCN1C(N)=C(C#N)C(C#N)(C#N)C1CCC` (stereo not given), the GI50 in the test on HL-60 is > 100 µM (inactive); in the test on SK-MEL-5, 81.7 µM (inactive); in the test with IGROV-1 it was > 100 µM (inactive); with HCT-116, > 100 µM (inactive); with HOP-92 it was 52.1 µM (inactive); in the test with SK-MEL-2, > 100 µM (inactive). The GI50 in the test on OVCAR-4, in the test on KM12, in the test with MDA-N, with MDA-MB-231, in the test on HT-29 and in the test on SN12C was > 100 µM (inactive) in each case. In addition, the GI50 in the test on NCI-H460 is > 100 µM (inactive); with 786-0, > 100 µM (inactive); in the test on EKVX, 47.4 µM (inactive); in the test on U-251 it was > 100 µM (inactive); in the test with HOP-62 it was > 100 µM (inactive); in the test on K562, > 100 µM (inactive). For the same compound, the GI50 with M14 and in the test on TK-10 was > 100 µM (inactive) throughout.
With `FC(F)(F)c1ccc2c(c1)nc(Cc1ccc(Cl)c(Cl)c1)n2CC1CCCN2CCCCC12` (stereo not given), the GI50 in the test with HL-60 was 17.5 µM (inactive); in the test with SK-MEL-5, 16.4 µM (inactive); in the test with IGROV-1 it was 21.2 µM (inactive); in the test with HCT-116, 14.8 µM (inactive); in the test on HOP-92, 22.9 µM (inactive); in the test with SK-MEL-2, 35.5 µM (inactive). Moreover, the GI50 with OVCAR-4 is 74.5 µM (inactive); with KM12, 24.4 µM (inactive); with MDA-N it was 18.2 µM (inactive); with MDA-MB-231 it was 15.3 µM (inactive); with HT-29 it was 11.2 µM (inactive); with SN12C, 20.3 µM (inactive). In addition, the GI50 in the test with NCI-H460 is 19.6 µM (inactive); in the test on 786-0, 16.2 µM (inactive); with EKVX, 21.2 µM (inactive); with U-251, 23.1 µM (inactive); in the test with HOP-62 it was 31 µM (inactive); in the test on K562, 32.5 µM (inactive). In addition, the GI50 was 12.4 µM (inactive) in the test on M14 and 19.1 µM (inactive) in the test on TK-10.
Regarding `c1ccc(-c2c(-c3[nH]c4ccccc4c3-c3ccccc3)[nH]c3ccccc23)cc1`, the GI50 with HL-60 was 3.06 µM (inactive); in the test with SK-MEL-5 it was 4.16 µM (inactive); in the test on IGROV-1, 4.75 µM (inactive); with HCT-116, 4.06 µM (inactive); in the test with HOP-92 it was 3.21 µM (inactive); with SK-MEL-2, 8.45 µM (inactive). Further, the GI50 in the test with OVCAR-4 was 2.17 µM (inactive); with KM12, 3.03 µM (inactive); with MDA-N, 2.74 µM (inactive); in the test on MDA-MB-231, 3.4 µM (inactive); with HT-29, 3.45 µM (inactive); in the test with SN12C, 1.91 µM (inactive). The GI50 with NCI-H460 was 2.95 µM (inactive); with 786-0, 2.07 µM (inactive); in the test on EKVX, 3.89 µM (inactive); in the test with U-251, 4.52 µM (inactive); in the test with HOP-62, 2.55 µM (inactive); in the test on K562, 4.03 µM (inactive). The GI50 was 3.54 µM (inactive) in the test on M14 and 10.6 µM (inactive) in the test on TK-10.
Take `O=C(O)c1ccccc1CC1Cc2ccc3c(c2C1=O)CCC3` (stereo not given): the GI50 with HL-60, in the test with SK-MEL-5, in the test on IGROV-1, in the test on HCT-116, in the test with HOP-92 and in the test on SK-MEL-2 was > 100 µM (inactive) throughout. Moreover, the GI50 in the test on OVCAR-4, with KM12, in the test with MDA-N, in the test with MDA-MB-231, in the test with HT-29 and with SN12C was > 100 µM (inactive) in each case. Also, the GI50 in the test on NCI-H460, with 786-0, with EKVX, with U-251, with HOP-62 and in the test with K562 was > 100 µM (inactive) throughout. The GI50 is 61.8 µM (inactive) with M14 and > 100 µM (inactive) in the test on TK-10.
